Laboratory results as given in EP0541662B1, “SYNTHETIC PEPTIDES THAT ANTAGONIZE NEUROKININ A, THEIR SALTS AND THEIR MANUFACTURING PROCESSES” (A. MENARINI INDUSTRIE FARMACEUTICHE RIUNITE S.R.L., priority 1990, dated 1992).
Square brackets hold non-standard residues; d marks the D form. Peptide text beside a SMILES is read from it. Nle = CCCC[C@H](N)C(=O)O; Orn = NCCC[C@H](N)C(=O)O

Biological target: T1, NK-2 receptor (Oryctolagus cuniculus, UniProt P79218)
T1 construct: This preparation is isolated rabbit pulmonary artery, in which tachykinins produce dose-related contraction; from tissue; host or cells: isolated rabbit pulmonary artery
T1 sequence (P79218 1-384): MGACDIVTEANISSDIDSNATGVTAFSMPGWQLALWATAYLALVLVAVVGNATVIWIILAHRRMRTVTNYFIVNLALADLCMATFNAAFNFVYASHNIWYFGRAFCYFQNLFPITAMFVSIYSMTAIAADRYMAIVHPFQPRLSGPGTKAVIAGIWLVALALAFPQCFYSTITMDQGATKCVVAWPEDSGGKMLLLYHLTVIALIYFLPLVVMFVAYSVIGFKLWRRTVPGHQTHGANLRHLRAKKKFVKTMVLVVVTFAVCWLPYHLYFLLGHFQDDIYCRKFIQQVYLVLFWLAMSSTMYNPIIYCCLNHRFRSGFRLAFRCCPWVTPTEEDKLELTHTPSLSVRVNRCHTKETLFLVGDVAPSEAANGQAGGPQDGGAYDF
Experiment: Antagonism of NKA-induced contraction in isolated rabbit pulmonary artery
Format: cell-based
Details: inhibition of the response to NKA (3 nM), 10⁻⁶M concentration of each compound
Procedure: The ability of the peptides described in the present invention to interact with the neurokinin A receptor as agonists or antagonists was evaluated in an in-vitro study using a preparation in which the biological response produced by tachykinins and related peptides is determined exclusively from the neurokinin A receptor (NK-2 receptor). This preparation is isolated rabbit pulmonary artery, in which tachykinins produce dose-related contraction (Rovero et al., Neuropeptides, 1989, 13: 263-270). The activity of the peptides in this preparation was determined using a concentration of NKA (3 nM) that produces a response equivalent to 45% of the maximum. The peptides that are the subject of the present application were added to the preparation in increasing concentrations and their activity evaluated in terms of inhibition of the response to NKA.
Antagonist biological activity on the NK-2 receptor in isolated rabbit pulmonary artery of the peptides described.

inhibition [%] | SMILES
95 | CC(C)[C@@H]1NC(=O)[C@@H](Cc2c[nH]c3ccccc23)NC(=O)[C@H](Cc2ccc(O)cc2)NC(=O)[C@H](CC(=O)O)NC(=O)[C@H](CCCNC(=N)N)NC(=O)[C@@H](Cc2c[nH]c3ccccc23)NC(=O)[C@@H](Cc2c[nH]c3ccccc23)NC1=O [Cyclo[AspTyrDTrpValDTrpDTrpArg], cyclo[AspTyrDTrpValDTrpDTrpArg]] (cyclo(DY[dW]V[dW][dW]R))
95 | CC(C)[C@@H]1NC(=O)[C@@H](Cc2c[nH]c3ccccc23)NC(=O)[C@H](Cc2ccc(O)cc2)NC(=O)[C@H](CC(=O)O)NC(=O)[C@H](CCCCN)NC(=O)[C@@H](Cc2c[nH]c3ccccc23)NC(=O)[C@@H](Cc2c[nH]c3ccccc23)NC1=O [Cyclo[AspTyrDTrpValDTrpDTrpLys], cyclo[AspTyrDTrpValDTrpDTrpLys]] (cyclo(DY[dW]V[dW][dW]K))
100 | CC(C)[C@H](NC(=O)[C@@H](Cc1c[nH]c2ccccc12)NC(=O)[C@H](Cc1ccc(O)cc1)NC(=O)[C@@H](N)CC(=O)O)C(=O)N[C@H](Cc1c[nH]c2ccccc12)C(=O)N[C@H](Cc1c[nH]c2ccccc12)C(=O)NCC(N)=O [H-Asp-Tyr-DTrp-Val-DTrp-DTrp-Gly-NH₂] (H-DY[dW]V[dW][dW]G-NH2)
100 | CC(C)[C@H](NC(=O)[C@@H](Cc1c[nH]c2ccccc12)NC(=O)[C@H](Cc1ccc(O)cc1)NC(=O)[C@@H](N)CC(=O)O)C(=O)N[C@H](Cc1c[nH]c2ccccc12)C(=O)N[C@H](Cc1c[nH]c2ccccc12)C(=O)N[C@@H](CCCCN)C(N)=O [H-Asp-Tyr-DTrp-Val-DTrp-DTrp-Lys-NH₂] (H-DY[dW]V[dW][dW]K-NH2)
100 | CC(C)[C@H](NC(=O)[C@@H](Cc1c[nH]c2ccccc12)NC(=O)[C@H](Cc1ccc(O)cc1)NC(=O)[C@@H](N)CC(=O)O)C(=O)N[C@H](Cc1c[nH]c2ccccc12)C(=O)N[C@H](Cc1c[nH]c2ccccc12)C(=O)N[C@@H](CCCN)C(N)=O [H-Asp-Tyr-DTrp-Val-DTrp-DTrp-Orn-NH₂] (H-DY[dW]V[dW][dW][Orn]-NH2)

The remaining lines, values behind:

SMILES | inhibition [%]
CC(C)[C@H](NC(=O)[C@@H](Cc1c[nH]c2ccccc12)NC(=O)[C@H](Cc1ccc(O)cc1)NC(=O)[C@@H](N)CC(=O)O)C(=O)N[C@H](Cc1c[nH]c2ccccc12)C(=O)N[C@H](Cc1c[nH]c2ccccc12)C(=O)N[C@@H](C)C(N)=O [H-Asp-Tyr-DTrp-Val-DTrp-DTrp-Ala-NH₂] (H-DY[dW]V[dW][dW]A-NH2) | 100
CC(C)[C@H](NC(=O)[C@@H](Cc1c[nH]c2ccccc12)NC(=O)[C@H](Cc1ccc(O)cc1)NC(=O)[C@@H](N)CC(=O)O)C(=O)N[C@H](Cc1c[nH]c2ccccc12)C(=O)N[C@H](Cc1c[nH]c2ccccc12)C(=O)N[C@@H](CCC(=O)O)C(N)=O [H-Asp-Tyr-DTrp-Val-DTrp-DTrp-Glu-NH₂] (H-DY[dW]V[dW][dW]E-NH2) | 100
CC(C)C[C@H](NC(=O)[C@@H](Cc1c[nH]c2ccccc12)NC(=O)[C@@H](Cc1c[nH]c2ccccc12)NC(=O)[C@@H](NC(=O)[C@@H](Cc1c[nH]c2ccccc12)NC(=O)[C@H](Cc1ccc(O)cc1)NC(=O)[C@@H](N)CC(=O)O)C(C)C)C(N)=O [H-Asp-Tyr-DTrp-Val-DTrp-DTrp-Leu-NH₂] (H-DY[dW]V[dW][dW]L-NH2) | 100
CCCC[C@H](NC(=O)[C@@H](Cc1c[nH]c2ccccc12)NC(=O)[C@@H](Cc1c[nH]c2ccccc12)NC(=O)[C@@H](NC(=O)[C@@H](Cc1c[nH]c2ccccc12)NC(=O)[C@H](Cc1ccc(O)cc1)NC(=O)[C@@H](N)CC(=O)O)C(C)C)C(N)=O [H-Asp-Tyr-DTrp-Val-DTrp-DTrp-Nle-NH₂] (H-DY[dW]V[dW][dW][Nle]-NH2) | 100
